# Experimental data published in patent publication US11472798B2 (Mission Therapeutics Limited, priority 2014, dated 2022).
# Biological target: T1, UCHL1 (Homo sapiens, UniProt P09936)
# T1 construct: made in house; host or cells: HEK293T
# T1 sequence (P09936 1-223): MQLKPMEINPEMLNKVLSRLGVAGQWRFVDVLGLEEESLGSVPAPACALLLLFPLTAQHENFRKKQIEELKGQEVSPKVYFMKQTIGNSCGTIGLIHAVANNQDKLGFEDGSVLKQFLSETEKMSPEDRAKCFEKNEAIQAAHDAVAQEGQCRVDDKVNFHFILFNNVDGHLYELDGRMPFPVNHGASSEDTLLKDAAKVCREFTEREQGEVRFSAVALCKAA
# Assay: UCHL1 biochemical IC50 assay (fluorescence polarisation)
# Conditions: 30 min enzyme/compound pre-incubation at room temp, read after 2 hr incubation, read-out: Activity range (UCHL1 biochemical IC50 assay)
# Text: Biological Activity of Compounds of the Invention Abbreviations: TAMRA carboxytetramethylrhodamine PCR polymerase chain reaction PBS phosphate buffered saline EDTA ethylenediaminetetraacetic acid Tris 2-amino-2-(hydroxymethyl)-1,3-propanediol NP-40 Nonidet P-40, octylphenoxypolyethoxyethanol BSA bovine serum albumin In Vitro UCHL1 Inhibition Assay Expression and Purification of UCHL1
# The UCHL1 construct was PCR amplified and cloned into a pFLAG-CMV-6a vector (Sigma-Aldrich) with an N-terminal FLAG tag. HEK293T cells were transfected with FLAG-UCHL1 using TransIT-LT1 transfection reagent (Mirus) according to the manufacturer's instructions. Cells were harvested 40 hours after transfection. Cells were washed once with PBS and scraped in lysis buffer (50 mM Tris, pH 7.5, 150 mM NaCl, 3 mM EDTA, 0.5% NP40, 10% glycerol, 5 mM beta-mercaptoethanol, protease inhibitors (complete mini, Roche) and phosphatase inhibitors (PhosSTOP mini, Roche). Lysates were incubated for 30 min on ice and centrifuged at 1200 rpm for 10 min at 4° C. Soluble supernatant was added to FLAG affinity resin (EZview Rad ANTI-FLAG M2 affinity gel, Sigma-Aldrich) equilibrated in low salt buffer (20 mM Tris, pH 7.5, 150 mM NaCl, 0.5 mM EDTA, 5 mM beta-mercaptoethanol) and incubated at 4° C. for 3 hours rotating. The resin was spun at 2000 rpm for 2 min and the supernatant was removed. The resin was washed two times with low salt buffer and one time with high salt buffer (20 mM Tris, pH 7.5, 500 mM NaCl, 0.5 mM EDTA, 5 mM beta-mercaptoethanol, protease inhibitors (complete mini, Roche) and phosphatase inhibitors (PhosSTOP mini, Roche). To elute the bound UCHL1, elution buffer (10 mM Tris, pH 7.5, 150 mM NaCl, 0.5 mM FDTA, 10% glycerol, 0.5% NP40, 5 mM beta-mercaptoethanol, 0.15 mg/ml 3×FLAG peptide (Sigma-Aldrich)) was added to the resin and incubated at 4° C. for 2.5 hours rotating. The resin was centrifuged at 4000 rpm for 30 seconds, and the supernatant containing purified FLAG-UCHL1 was removed and stored at −80° C.
# UCHL1 Biochemical IC50 Assay
# Dilution plates were prepared at 21 times the final concentration (2100 μM for a final concentration of 100 µM) in 50% DMSO in a 96-well polypropylene V-bottom plate (Greiner #651201). A typical 8-point dilution series to be 100, 30, 10, 3, 1, 0.3, 0.1, 0.03 μM final. Reactions were performed in duplicate in black 384 well plates (small volume, Greiner 784076) in a final reaction volume of 21 μl. Either 1 μl of 50% DMSO or diluted compound was added to the plate. UCHL1 was diluted in reaction buffer (20 mM Tris, pH 7.5, 100 mM NaCl, 0.05% Tween 20, 0.5 mg/ml BSA, 5 mM—beta mercaptoethanol) to the equivalent of 0.05 μl/well and 10 μl of diluted UCHL1 was added to the compound. Enzyme and compound were incubated for 30 min at room temp. Reactions were initiated by the addition of 50 nM of TAMRA labelled peptide linked to ubiquitin via an iso-peptide bond as fluorescence polarisation substrate. Reactions were read immediately after addition of substrate and following a 2 hr incubation at room temperature. Readings were performed on a Pherastar Plus (BMG Labtech). λ Excitation 540 nm; k Emission 590 nm.
row,IC50,Structure (SMILES)
1,< 1 µM,"C[C@H]1[C@@H](C(=O)Nc2cc(-c3ccccc3)[nH]n2)CCN1C#N [Example 75, (2S,3S)-1-cyano-2-methyl-N-(5-phenyl-1H-pyrazol-3-yl)pyrrolidine-3-carboxamide]"
2,1 to 10 µM,"CC(C)Cn1cnc(NC(=O)[C@H]2CCN(C#N)C2)c1 [Example 148, (S)-1-cyano-N-(1-isobutyl-1H-imidazol-4-yl)pyrrolidine-3-carboxamide]"
3,< 1 µM,"N#CN1CCC(C(=O)Nc2ncc(N3CCc4ccccc43)s2)C1 (centres unmarked) [Example 95, 1-cyano-N-(5-(indolin-1-yl)thiazol-2-yl)pyrrolidine-3-carboxamide]"
4,1 to 10 µM,"N#CN1CCC(C(=O)Nc2nnc(-c3ccccc3)s2)C1 (centres unmarked) [Example 11, 1-cyano-N-(5-phenyl-1,3,4-thiadiazol-2-yl)pyrrolidine-3-carboxamide]"
5,1 to 10 µM,"N#CN1CCC(C(=O)Nc2ncc(-c3ccccc3F)s2)C1 (centres unmarked) [Example 3, 1-cyano-N-(5-(2-fluorophenyl)thiazol-2-yl)pyrrolidine-3-carboxamide]"
6,1 to 10 µM,"CCc1nnc(NC(=O)C2CCN(C#N)C2)s1 (centres unmarked) [Example 12, 1-cyano-N-(5-ethyl-1,3,4-thiadiazol-2-yl)pyrrolidine-3-carboxamide]"
7,< 1 µM,"N#CN1CC[C@H](C(=O)Nc2ncc(-c3cccc(-n4cccn4)c3)s2)C1 [Example 218, (S)-N-(5-(3-(1H-pyrazol-1-yl)phenyl)thiazol-2-yl)-1-cyanopyrrolidine-3-carboxamide]"
8,< 1 µM,"N#CN1CC[C@H](C(=O)Nc2cn(C3CCCCC3)cn2)C1 [Example 162, (S)-1-cyano-N-(1-cyclohexyl-1H-imidazol-4-yl)pyrrolidine-3-carboxamide]"
9,< 1 µM,"COc1cc(-c2ccc3nc(NC(=O)[C@H]4CCN(C#N)C4)cn3c2)c(OC)nn1 [Example 131, (S)-1-cyano-N-(6-(3,6-dimethoxypyridazin-4-yl)imidazo[1,2-a]pyridin-2-yl)pyrrolidine-3-carboxamide]"
10,< 1 µM,"N#CN1CC[C@H](C(=O)Nc2ncc(-c3cccc4cn[nH]c34)s2)C1 [Example 215, (S)-N-(5-(1H-indazol-7-yl)thiazol-2-yl)-1-cyanopyrrolidine-3-carboxamide]"
11,1 to 10 µM,"COc1ccc(-c2cc(NC(=O)C3CCN(C#N)C3)on2)cc1 (centres unmarked) [Example 14, 1-cyano-N-(3-(4-methoxyphenyl)isoxazol-5-yl)pyrrolidine-3-carboxamide]"
12,< 1 µM,"C[C@H]1[C@@H](C(=O)Nc2ncc(C3CCOCC3)s2)CCN1C#N [Example 76, (2S,3S)-1-cyano-2-methyl-N-(5-(tetrahydro-2H-pyran-4-yl)thiazol-2-yl)pyrrolidine-3-carboxamide]"
13,1 to 10 µM,"N#CN1CC[C@H](C(=O)Nc2cc(-c3cn[nH]c3)ccn2)C1 [Example 291, (S)-N-(4-(1H-pyrazol-4-yl)pyridin-2-yl)-1-cyanopyrrolidine-3-carboxamide]"
14,< 1 µM,"CS(=O)(=O)Nc1ccc(-c2cnc(NC(=O)[C@H]3CCN(C#N)C3)s2)cc1 [Example 217, (S)-1-cyano-N-(5-(4-(methylsulfonamido)phenyl)thiazol-2-yl)pyrro1idine-3-carboxamide]"
15,1 to 10 µM,"N#Cc1ccc(O[C@H]2CCOC2)cc1-n1cnc(NC(=O)[C@H]2CCN(C#N)C2)c1 [Example 248, (S)-1-cyano-N-(1-(2-cyano-5-(((S)-tetrahydrofuran-3-yl)oxy)phenyl)-1H-imidazol-4-yl)pyrrolidine-3-carboxamide]"
16,< 1 µM,"CN1CCCC(n2cnc(NC(=O)[C@H]3CCN(C#N)C3)c2)C1 (stereo partly drawn) [Example 187, (3S)-1-cyano-N-(1-(1-methylpiperidin-3-yl)-1H-imidazol-4-yl)pyrrolidine-3-carboxamide]"
17,1 to 10 µM,"N#CN1C[C@@H](C(=O)Nc2ncc(-c3ccccc3)s2)[C@H](c2cccnc2)C1 (relative stereo) [Example 282, trans-1-cyano-N-(5-phenylthiazol-2-yl)-4-(pyridin-3-yl)pyrrolidine-3-carboxamide]"
